Results taken from patent publication US4888355A, “Indanes and their use as antiarrhythmic agents” (priority 1986, dated 1989).
pIC50: −log10 of the molar value.

Experiments:
[1] = Acute toxicity; type: in vivo; conditions: mice
Description: The LDO or the dose at which there was no mortality after 8 days was determined on mice and the DLO for the compounds of Example 1,3 and 4 was 100, 100 and 200 mg/kg, respectively.

[2] = Diuretic activity; type: in vivo; conditions: male Sprague-Dawley rats; 1 mg/kg; period t1h-t2h
Description: Male rats of the Sprague-Dawley strain weighing 180 to 200 g were fasted for 17 hours before the test but received as much water as they desired. Groups of 8 rats were used for the test doses with the rats receiving the test compound or only the vehicle. The remaining volume was measured hourly for 2 hours after administration of the compound. At the end of this period, the urine was collected and the activity of the compounds was expressed as the percentage of variation calculated as the urinary volume in the period t1h -t2h.

[3] = Antiarythmic activity, aconitine perfusion in anesthesized rats; type: in vivo; conditions: male rats; 10 mg/kg intravenous, 5 minutes before aconitine perfusion 10 μg/mn; vs controls
Description: Tracheotomized male rats weighing 300 to 350 g were anesthesized intraperitonally with 1.20 g/kg of urethane and were subjected to artifical respiration of 40 to 50 insufflations of 3 ml/minute. Needles were implanted subcutaneously to register the electrocardiogram of the rats by the signal of DII derivative. The test compounds were administered intraveinously and 5 minutes later, the jugular veins of the rats were perfused with 10 μg/mn or 0.2 ml of an aconitine solution and the time of appearance of troubles in the cardiac rhythm was noted. The results were expressed as a percentage of the elongation of time of the appearance of the cardiac rhythm troubles as compared to the controls and as a function of the dose of the test compound.

[4] = In vivo analgesic activity, hot plate test; conditions: Mus musculus, sc, 0.5 h; female mice, copper plate 56° C.; subcutaneous; 30 minutes after treatment; read-out: DA100 (dose which increased the reaction time 100%)
Description: In the hot plate test, female mice weighing 22 to 24 g were placed individually on a copper plate maintained at 56° C. and the reaction to the pain was manifested by licking of the paws by the animal. […] The mice were divided into homogenous group and the test compound was administered subcutaneously with one group receiving only the vehicle. The reaction time to pain was measured again 30 to 60 minutes after treatment and the dose which increased the reaction time 100% (DA100) 30 minutes after treatment as compared to the control animals was determined. The DA100 for the compound of Example 1 was 8 mg/kg.

[5] = target: T1, Kappa opiate receptor (Cavia porcellus, UniProt P41144); experiment: In vitro bonding of Kappa opiate receptor; type: binding; conditions: guinea pig cerebellum membranes; 1 nM 3H ethylketocyclazocine; pH 7.7; 25° C., 40 minutes; read-out: CI50 (50% inhibiting concentration)
T1 construct: Membrane culots preserved at -30° C. for about 30 days and prepared from guinea pig cerebellum; from tissue; host or cells: guinea pig cerebellum membranes
Description: Membrane culots preserved at -30° C. for about 30 days and prepared from guinea pig cerebellum were suspended in buffered Tris pH of 7.7. 2 ml fractions were placed in hemolysis tubes and 1 nM of 9^3 H ethylketocyclazocine and 5×10^-6 M of test compound were added thereto (in triple). When the test product displaced more than 50% of the radioactivity tied specifically to the receptor, the test was repeated with a range of seven doses to determine the dose which inhibited by 50% the radioactivity tied specifically to the receptor which is deemed CI50. The non-specific bond was determined by the addition of the known product, U-50488 H [Lahti et al., Life Science, Vol. 31 (1982), p 2257], at 10^-5 M (in triple). The mixture was incubated at 25° C. for 40 minutes, placed in a bath at 0° C. for 5 minutes and vacuum filtered. The product was rinsed with buffered Tris at a pH of 7.7 and the radioactivity was counted in the presence of Trition scintillation. The results were expressed directly as the 50% inhibiting concentration (CI50) or the concentration of the test compound which reduced by 50% radioactivity specificity fixed to the standard receptor.

T1 sequence (P41144 whole entry): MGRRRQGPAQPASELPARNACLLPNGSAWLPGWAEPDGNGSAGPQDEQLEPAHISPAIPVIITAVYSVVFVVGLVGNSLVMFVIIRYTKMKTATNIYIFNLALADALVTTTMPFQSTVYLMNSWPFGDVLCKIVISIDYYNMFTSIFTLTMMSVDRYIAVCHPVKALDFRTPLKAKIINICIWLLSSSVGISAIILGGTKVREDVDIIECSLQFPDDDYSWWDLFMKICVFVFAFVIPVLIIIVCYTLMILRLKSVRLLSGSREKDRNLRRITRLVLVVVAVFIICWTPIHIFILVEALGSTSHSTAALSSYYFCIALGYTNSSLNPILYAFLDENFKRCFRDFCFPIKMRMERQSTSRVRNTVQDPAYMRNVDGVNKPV

Row | Structure (SMILES) | LDO (dose at which there was no mortality after 8 days) [1] [mg/kg] | % Variation (urinary volume) [2] | % elongation of time of the appearance of the cardiac rhythm troubles [3] | ED (100% increase in reaction time) [4] [mg/kg] | pIC50 [5]
1 | CN(C(=O)Cc1cccc2sccc12)[C@@H]1c2ccccc2C[C@H]1N1CCCC1 (racemic) [Example 1, Trans (±) N-[2,3-dihydro-2-(pyrrolidin-1-yl)-1H-inden-1-yl]-N-methyl-4-benzo[b]thiophene-acetamide] | 100 | +131% | +65% | 8 | 8.74
2 | CN(C(=O)Cc1cccc2ccccc12)[C@@H]1c2ccccc2C[C@H]1N1CCCC1 (racemic) [Example 3, trans (±) N-[2,3-dihydro-2-(1-pyrrolidinyl)-1H-inden-1-yl]-N-methyl-1-naphthalene-acetamide] | 100 | +267% |  |  | 8.31
3 | CN(C(=O)Cc1ccc2ccccc2c1)[C@@H]1c2ccccc2C[C@H]1N1CCCC1 (racemic) [Example 4, Trans (±) N-[2,3-dihydro-2-(1-pyrrolidinyl)-1H-inden-1-yl]-N-methyl-2-naphthalene-acetamide] | 200 |  |  |  | 
